Assay results taken from PMC3858552, “The discovery of potent ribosomal S6 kinase inhibitors by high-throughput screening and structure-guided drug design” (Oncotarget, 2013).
Read-outs that look alike come from different tables or passages of the source.

How the values were obtained:
S6K1 [1] = target: T1, S6K1 (Homo sapiens, UniProt P23443, T412E); test: S6K1 DELFIA phosphorylation assay (IC50 of screening hits); type: biochemical; conditions: for LE (ligand efficiency): calculated using the mean IC50 values; for IC50: repurchased samples
T1 construct: The His-tagged kinase domain of S6K1 (residues 1-421, catalogue number 14-486) used in the HTS; His; purchased Millipore (Upstate/Millipore) 14-486
Description: For primary screening hits, IC50 values were determined using a DELFIA® assay that monitors phosphorylation of a S6 peptide using a specific phospho-antibody. The enzyme reaction was carried out in 96 well polypropylene plates (#650261; Greiner Bio-One, Frickenhausen, Germany).
For each compound, a 10mM stock was diluted in water resulting in a 1250 μM solution in 12.5% (v/v) DMSO. Compounds were manually diluted 1 in 3 in 12.5% (v/v) DMSO to give an eight point dilution curve in duplicate. Finally, 5 μL compound solution or 12.5% (v/v) DMSO was transferred to the assay plate resulting in compound assay concentrations of 0.12-250 μM.
Subsequently, 20 μL of reaction reagents were added to the assay plate resulting in final assay concentrations of 1 μM S6 peptide (biotin-[…], synthesised by J. Metcalfe, ICR), 2 nM S6K1 (#14-486; Millipore, Billerica, MA, USA) and 30 μM ATP in assay buffer consisting of 40 mM HEPES pH 7.4, 10 mM MgCl2, 1 mM DTT and 0.02% (v/v) Tween 20. The reaction was incubated for an hour at 37 °C and stopped by the addition of 125 μL buffer comprising 40 mM EDTA, 0.05% (v/v) Tween 20, 0.1% (w/v) BSA in TBS (10x concentrate, Sigma-Aldrich, Gillingham, UK). A 100 μL aliquot of the reaction solution was transferred to a black neutravidin-coated plate (#15117; Perbio/Thermo Scientific, Cramlington, UK) and incubated for an hour on a Titertek shaker (Flow Laboratories, Sutton, UK) at room temperature. The plates were washed four times with WellWash4 wash buffer (Thermo Life Sciences Ltd, Basingstoke, UK) containing 25 mM Tris pH 8, 150 mM NaCl and 0.1% (v/v) Tween 20 and incubated for an hour with 100 μL of an antibody mix consisting of 0.05 nM of an anti-phospho S6 antibody (#2211; Cell Signalling Technology) and 0.18 μg/mL of an europium-labelled anti-rabbit IgG, (#AD0105; PerkinElmer Life Sciences, Waltham, MA, USA) diluted in DELFIA assay buffer (#4002-0010; PerkinElmer Life Sciences). The plates were washed a further four times with WellWash4 wash buffer (Thermo Life Sciences) before the addition of 100 μL Enhancement Solution (#4001-0010; PerkinElmer Life Sciences). The plate was read on an EnVision® 2103 Multilabel Reader (PerkinElmer Life Sciences) using a time-resolved measurement mode reading fluorescence at 615 nm. IC50 values were calculated from a four-parameter logistics fit of percentage inhibition versus concentration using GraphPad Prism 5 (GraphPad Software, Inc., CA, USA).

S6K1 [2] = target: S6K1 (Homo sapiens, UniProt P23443); test: S6K1 mobility shift (microfluidic) assay; type: biochemical; conditions: for LE (ligand efficiency): calculated using the mean IC50 values; for activity against S6K1 (in words): benzimidazole / azabenzimidazole oxadiazoles
Description: For all compounds from the benzimidazole oxadiazole/azabenzimidazole oxadiazole series, the IC50 values were determined using a microfluidic assay that monitors the separation of a phosphorylated product from its substrate. […] For each compound, a 10 mM stock concentration in 100% DMSO was used.
IC50 values were calculated from a four-parameter logistics fit of percentage inhibition versus concentration using GraphPad Prism 5 (GraphPad Software, Inc., CA, USA).

[3] = system: HCV29 human bladder carcinoma cells; test: Sulforhodamine B proliferation assay (GI50); type: cell-based; conditions: HCV-29, 96 hours continuous exposure, read-out: GI50 (50% tumour growth inhibition)
Description: (§1) The human bladder carcinoma cell line HCV29 was obtained from Dr Richard Lamb (University of Liverpool, UK). This cell line has elevated mTORC1 and S6K activity through loss of TSC1 [46] as a result of a missense mutation and TSC2 loss that was confirmed by immunoblotting (data not shown). Cells were cultured in RPMI (Invitrogen, Life Technologies Ltd, Paisley, UK) containing 2 mmol/L glutamine (Invitrogen), and supplemented with non-essential amino acids (Invitrogen) 10% fetal bovine serum (PAA Laboratories Ltd, Yeovil, UK) in 5% CO2 in air at 37 °C. GI50 values (concentrations) causing 50% inhibition of proliferation for tumour cells were determined using a sulforhodamine B assay. Electrochemiluminescent immunoassays (Meso Scale Discovery, Rockville, MD, USA) measuring the inhibition of phosphorylation of RPS6-ser235/236, AKT-Thr308, AKT-Ser473, GSK3b-Ser9 and S6K-Ser421/424 were carried out as described in Raynaud et al..

S6K2 = S6K2 (Homo sapiens, UniProt Q9UBS0); test: S6K2 inhibition; type: biochemical
S6K-Ser421/424 = test: Electrochemiluminescent ELISA, S6K-Ser421/424 phosphorylation in intact cells; type: cell-based; conditions: Homo sapiens, electrochemoluminescent ELISA
Description: as §1

RPS6-ser235/236 = test: Electrochemiluminescent ELISA, RPS6 Ser235/236 phosphorylation in intact cells; type: cell-based; conditions: Homo sapiens, HCV-29; HCV29 intact cells, 2 hours exposure, n=3; read-out: EC50 for 50% inhibition of RPS6 Ser235/236 phosphorylation
Description: as §1

AKT-Ser473 = test: Electrochemiluminescent ELISA, AKT-Ser473 phosphorylation in intact cells; type: cell-based; conditions: Homo sapiens, electrochemoluminescent ELISA
Description: as §1

AKT-Thr308 = test: Electrochemiluminescent ELISA, AKT-Thr308 phosphorylation in intact cells; type: cell-based; conditions: Homo sapiens, electrochemoluminescent ELISA
Description: as §1

GSK3b-Ser9 = test: Electrochemiluminescent ELISA, GSK3b-Ser9 phosphorylation in intact cells; type: cell-based; conditions: Homo sapiens, electrochemoluminescent ELISA
Description: as §1

[4] = Table 2, confirmation DELFIA assay, mean ± standard error, duplicate
[5] = Table 3, confirmation DELFIA assay, mean ± standard error, duplicate
[6] = Table 4, mobility shift assay, mean ± SD triplicate, or duplicate/single measurement as footnoted, read-out: S6K1 IC50
[7] = Table 5, mobility shift assay, mean ± SD triplicate, or single measurement as footnoted, read-out: S6K1 IC50
[8] = Table 6, mobility shift assay, mean ± SD triplicate, or duplicate ± SE / single measurement as footnoted, read-out: S6K1 IC50

T1 sequence (P23443 1-421 T412E limits assumed): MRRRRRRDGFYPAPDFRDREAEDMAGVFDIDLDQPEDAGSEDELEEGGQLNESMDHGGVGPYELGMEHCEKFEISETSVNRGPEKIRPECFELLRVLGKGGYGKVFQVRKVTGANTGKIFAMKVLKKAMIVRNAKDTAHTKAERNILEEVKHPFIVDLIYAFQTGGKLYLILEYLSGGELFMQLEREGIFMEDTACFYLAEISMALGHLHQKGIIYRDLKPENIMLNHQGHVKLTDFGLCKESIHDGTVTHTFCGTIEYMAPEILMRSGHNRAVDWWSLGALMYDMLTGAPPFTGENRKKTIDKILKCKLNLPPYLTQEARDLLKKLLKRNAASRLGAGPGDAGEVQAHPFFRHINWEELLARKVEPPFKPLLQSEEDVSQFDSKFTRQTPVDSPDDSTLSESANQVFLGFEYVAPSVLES
Chain of S6K1 (Homo sapiens, UniProt P23443) (P23443 1-421): as the sequence (P23443 1-421 T412E limits assumed) above, with E412T counted along it
Chain of S6K2 (Q9UBS0 whole entry): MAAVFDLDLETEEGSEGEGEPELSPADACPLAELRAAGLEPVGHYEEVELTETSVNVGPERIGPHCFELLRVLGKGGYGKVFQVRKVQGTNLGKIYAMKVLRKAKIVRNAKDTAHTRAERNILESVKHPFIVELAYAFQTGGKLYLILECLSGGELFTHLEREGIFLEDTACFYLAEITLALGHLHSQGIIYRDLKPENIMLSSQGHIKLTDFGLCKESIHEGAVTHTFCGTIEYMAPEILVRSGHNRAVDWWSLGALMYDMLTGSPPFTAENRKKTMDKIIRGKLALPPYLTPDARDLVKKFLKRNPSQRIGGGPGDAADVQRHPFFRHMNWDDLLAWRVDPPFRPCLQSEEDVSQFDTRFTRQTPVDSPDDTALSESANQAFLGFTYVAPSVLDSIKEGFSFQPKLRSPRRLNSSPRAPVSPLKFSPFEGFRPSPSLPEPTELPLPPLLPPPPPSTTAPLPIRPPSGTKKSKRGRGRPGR

## O=c1c2ccccc2nc(-c2cccnc2)n1-c1ccc(Br)cn1 [Compound 7]
S6K1 [1]; Table 2
  LE (ligand efficiency): 0.38
S6K1 [1]; [4]
  IC50: 260 ± 150 nM

## Cc1ccc(-n2c(-c3ccccn3)nc3ccccc3c2=O)cc1 [Compound 8]
S6K1 [1]; Table 2
  LE (ligand efficiency): 0.33
S6K1 [1]; [4]
  IC50: 1550 ± 920 nM

## O=c1c2ccccc2nc(-c2ccccn2)n1-c1ccccc1 [Compound 9]
S6K1 [1]; Table 2
  LE (ligand efficiency): 0.33
S6K1 [1]; [4]
  IC50: 2970 ± 1530 nM

## CC(C)n1c(-c2nonc2N)nc2ccccc21 [Compound 10]
S6K1 [1]; Table 3
  LE (ligand efficiency): 0.50
S6K1 [1]; [5]
  IC50: 340 ± 140 nM

## C=CCn1c(-c2nonc2N)nc2ccccc21 [Compound 11]
S6K1 [1]; HTS hits
  IC50: 7000 nM
S6K1 [1]; Table 3
  LE (ligand efficiency): 0.40
S6K1 [1]; [5]
  IC50: 6980 ± 2070 nM

## Cn1c(-c2nonc2N)nc2ccccc21 [Compound 15a, 4-(1-Methyl-1H-benzoimidazol-2-yl)-1,2,5-oxadiazole-3-ylamine]
S6K1 [2]; Table 4
  LE (ligand efficiency): 0.58
S6K1 [2]; [6]
  IC50: 194 nM
S6K1 [2]
  activity against S6K1 (in words): about six-fold less active

## CCn1c(-c2nonc2N)nc2ccccc21 [Compound 15b, 4-(1-Ethyl-1H-benzoimidazol-2-yl)-1,2,5-oxadiazole-3-ylamine]
S6K1 [2]; Table 4
  LE (ligand efficiency): 0.59
S6K1 [2]; [6]
  IC50: 59.8 ± 32.4 nM

## Nc1nonc1-c1nc2ccccc2n1C1CC1 [Compound 15c, 4-(1-Cyclopropyl-1H-benzoimidazol-2-yl)-1,2,5-oxadiazole-3-ylamine]
S6K1 [2]; Table 4
  LE (ligand efficiency): 0.57
S6K1 [2]; [6]
  IC50: 36.6 ± 7 nM

## Nc1nonc1-c1nc2ccccc2n1Cc1ccccc1 [Compound 15d, 4-(1-Benzyl-1H-benzoimidazol-2-yl)-1,2,5-oxadiazole-3-ylamine]
S6K1 [2]; [6]
  IC50: > 100000 nM
S6K1 [2]
  activity against S6K1 (in words): complete loss of biochemical activity

## Nc1nonc1-c1nc2ccccc2n1CC1CC1 [Compound 15e, 4-(1-Cyclopropylmethyl-1H-benzoimidazol-2-yl)-1,2,5-oxadiazole-3-ylamine]
S6K1 [2]; Table 4
  LE (ligand efficiency): 0.56
S6K1 [2]; [6]
  IC50: 19.8 nM

## CC(=O)Nc1nonc1-c1nc2ccccc2n1C1CC1 [Compound 16, N-[4-(1-Cyclopropyl-1H-benzoimidazol->2-yl)-1,2,5-oxadiazole-3-yl]-acetamide]
S6K1 [2]; acetylated aminooxadiazole, read-out: S6K IC50
  IC50: > 100000 nM

## CCn1c(-c2nonc2N)nc2cc(Br)ccc21 [Compound 20a, 3-Amino-4-(5-bromo-1-ethyl-1H-benzimidazol-2-yl)-1,2,5-oxadiazole]
S6K1 [2]; Table 5
  LE (ligand efficiency): 0.55
S6K1 [2]; [7]
  IC50: 66.4 ± 5.6 nM

## CCn1c(-c2nonc2N)nc2cc(-c3ccccc3)ccc21 [Compound 20b, 3-Amino-4-(1-ethyl-5-phenyl-1H-benzimidazol-2-yl)-1,2,5-oxadiazole]
S6K1 [2]; Table 5
  LE (ligand efficiency): 0.35
S6K1 [2]; [7]
  IC50: 1640 ± 530 nM

## CCn1c(-c2nonc2N)nc2cc(C3CC3)ccc21 [Compound 20c, 3-Amino-4-(5-cyclopropyl-1-ethyl-1H-benzimidazol-2-yl)-1,2,5-oxadiazole]
S6K1 [2]; Table 5
  LE (ligand efficiency): 0.45
S6K1 [2]; [7]
  IC50: 334 ± 25.1 nM

## CCn1c(-c2nonc2N)nc2cc(OC)ccc21 [Compound 20d, 3-Amino-4-(1-ethyl-5-methoxy-1H-benzimidazol-2-yl)-1,2,5-oxadiazole]
S6K1 [2]; Table 5
  LE (ligand efficiency): 0.52
S6K1 [2]; [7]
  IC50: 63.4 nM

## CCn1c(-c2nonc2N)nc2cc(NC)ccc21 [Compound 20e, 3-Amino-4-(1-ethyl-5-methylamino-1H-benzimidazol-2-yl)-1,2,5-oxadiazole]
S6K1 [2]; Table 5
  LE (ligand efficiency): 0.50
S6K1 [2]; [7]
  IC50: 148 nM

## CCn1c(-c2nonc2N)nc2cccc(Br)c21 [Compound 20f, 3-Amino-4-(7-bromo-1-ethyl-1H-benzimidazol-2-yl)-1,2,5-oxadiazole]
S6K1 [2]; Table 5
  LE (ligand efficiency): 0.50
S6K1 [2]; [7]
  IC50: 303 ± 21 nM

## CCn1c(-c2nonc2N)nc2cccc(-c3cccnc3)c21 [Compound 20g, 3-Amino-4-(7-(3-pyridinyl)-1-ethyl-1H-benzimidazol-2-yl)-1,2,5-oxadiazole]
S6K1 [2]; Table 5
  LE (ligand efficiency): 0.39
S6K1 [2]; [7]
  IC50: 352 ± 173 nM

## CCn1c(-c2nonc2N)nc2cnc(Br)cc21 [Compound 21a, 3-Amino-4-(6-bromo-1-ethyl-1H-imidazo[4,5-c]pyridin-2-yl)-1,2,5-oxadiazole]
S6K1 [2]; Table 6
  LE (ligand efficiency): 0.59
S6K1 [2]; [8]
  IC50: 19.7 ± 2.6 nM

## CCn1c(-c2nonc2N)nc2cnc(Oc3cccc(S(C)(=O)=O)c3)cc21 [Compound 21b, 4-[1-Ethyl-6-(3-methanesulfonyl-phenoxy)-1H-imidazo[4,5-c]pyridin-2-yl]-1,2,5-oxadiazole-3-ylamine]
S6K1 [2]; Table 6
  LE (ligand efficiency): 0.34
S6K1 [2]; [8]
  IC50: 103 ± 23 nM

## CCn1c(-c2nonc2N)nc2cnc(-c3ccccc3)cc21 [Compound 21c, 4-(1-Ethyl-6-phenyl-1H-imidazo[4,5-c]pyridin-2-yl)-1,2,5-oxadiazole-3-ylamine]
S6K1 [2]; [8]
  IC50: > 100000 nM
S6K1 [2]
  activity against S6K1 (in words): abolished all affinity for S6K1

## CCn1c(-c2nonc2N)nc2cnc(N3CCOCC3)cc21 [Compound 21d, 4-(1-Ethyl-6-morpholin-4-yl-1H-imidazo[4,5-c]pyridin-2-yl)-1,2,5-oxadiazole-3-ylamine]
S6K1 [2]; Table 6
  LE (ligand efficiency): 0.42
S6K1 [2]; [8]
  IC50: 110 nM

## CCn1c(-c2nonc2N)nc2cnc(C)cc21 [Compound 21e, 4-(1-Ethyl-6-methyl-1H-imidazo[4,5-c]pyridin-2-yl)-1,2,5-oxadiazole-3-ylamine]
[3]
  GI50: 3500 nM
S6K2
  IC50: 300 ± 102 nM
S6K-Ser421/424
  IC50: > 15000 nM
S6K1 [2]
  ligand efficiency: 0.6
S6K1 [2]; Table 6
  LE (ligand efficiency): 0.60
S6K1 [2]; [8]
  IC50: 17.4 ± 6 nM
RPS6-ser235/236
  EC50: 9100 ± 1500 nM
AKT-Ser473
  IC50: > 15000 nM
AKT-Thr308
  IC50: > 15000 nM
GSK3b-Ser9
  IC50: > 15000 nM
